Measured values from US20060276549A1, “Combination and use of drugs” (priority 2005, published 2006).
Like-named read-outs stand apart in the source and are kept apart here.

Columns and labels:
[1] = tested on: Diet-induced Obese (DIO) Mice; experiment: Body weight loss in diet-induced obese (DIO) mice; assay type: in vivo, C57BL/6J mice; conditions: for body weight loss at day 14: p.o. q.d., sibutramine 15 mg/kg, rimonabant 3 mg/kg base
Description: C57BL/6J mice (age 5-6 weeks) were obtained from Jackson Labs (Bar Harbor, Me.) and housed in groups of 5 under conditions of 12 hours lights on, 12 hours lights off (on at 04:00 h), with food and water available ad libitum. At the beginning of the study, mice were administered a purified low fat diet (D12450Bi, 10 kcal % fat, 3.8 kcal/g) or a high fat content diet (D12492i, 60 kcal % fat, 5.2 kcal/g), both obtained from Research Diets Inc. (New Brunswick, N.J.) for approximately 16 weeks. The fat content of these diets was a mixture of lard and soybean oil.
(§1) Mice were individually housed for study two weeks prior to start of treatment. Mice were weighed one week later (experiment day -7), and conditioned to oral gavage and daily vehicle administration by daily oral treatment at 15:00 h with Tween-80 (Sigma Chemical, St. Louis, Mo.) 1% vehicle in water (V/V). All doses were given in 4 ml/kg body weight volume of vehicle. All compound doses are expressed as base equivalent weights per unit body weight. Mice were reweighed on day -1 to ensure that weight loss plateaued and was not progressive. Mice were stratified into groups of equal mean body weight, with n=20 mice per group. On days 0 to 28, mice were dosed by oral gavage at 15:00 h (q.d.). Sibutramine hydrochloride monohydrate and rimonabant hydrochloride were administered p.o. by gavage for 27 to 28 days at 15:00 h, at doses of 15 mg/kg and 3 mg/kg base, respectively, once a day (q.d.). Compounds were formulated in Tween-80 vehicle. For combination treatment, the individual compound formulations were mixed together immediately prior to dosing, and given as a single gavage. Food and body weights were determined on days 0 prior to treatment, and on days 1, 4, 7, 11, 14, 18, 21, 25, 27 and 28. Ten mice per group were fasted overnight on day 27. […] Plasma was analysed for insulin, leptin, free fatty acids, triglycerides, total cholesterol, HDLc and LDLc. […]

[2] = tested on: Diet-induced Obese (DIO) Mice; experiment: Prevention of body weight re-gain in DIO mice; assay type: in vivo, C57BL/6J mice; conditions: DIO mice re-introduced to high fat food; qd dosing, day 0-7; vs HF, LF, to HF control
Description: C57BL/6J mice (age 5-6 weeks) were obtained from Jackson Labs (Bar Harbor, Me.) and housed in groups of 5 under conditions of 12 hours lights on, 12 hours lights off (on at 04:00 h), with food and water available ad libitum. At the beginning of the study, mice were administered a purified low fat diet (D12450Bi, 10 kcal % fat, 3.8 kcal/g) or a high fat content diet (D12492i, 60 kcal % fat, 5.2 kcal/g), both obtained from Research Diets Inc. (New Brunswick, N.J.) for approximately 16 weeks. The fat content of these diets was a mixture of lard and soybean oil. Groups of mice that had been on the high fat diet were switched back to the low fat diet for approximately 4 weeks prior to their being re-introduced to either the high fat food (weight re-gain) or maintained on low fat food. Approximately 5 days prior to the onset of dosing study (Day -5), mice were acclimated to handling and conditioned to oral gavage and daily vehicle administration by daily oral treatment at 15:00 h with Tween-80 (Sigma Chemical, St. Louis, Mo.) 1% vehicle in water (VN). All doses were given in 4 ml/kg body weight volume of vehicle. At the start of drug treatment, mice were dosed qd at 15:00 hr each day for 7 days, and body weights and food intake were evaluated.

Zucker fa/fa rats = experiment: Rat model of snacking behavior with isobologram analysis; assay type: in vivo; conditions: for ED50: Rattus norvegicus, read-out: ED50 for reduction of snack intake (50% reduction in Snack Consumption); for effect on snack intake / snacking: oral dosing before snack
Description: Non-fasted male Zucker fa/fa −/− rats (450 gr) were habituated for 3 weeks to a twice weekly, 3 hour exposure to 60% fat diet (RDI #12492) achieving an average snack intake of 12 to 16 g. Compounds or vehicle (1% Tween 80/water) were dosed orally, 1 ml/kg, n=12-15/group, 1 hour before exclusive presentation of the snack. Snack intake and subsequent 21-hour intake of standard chow (Purina 5008) were measured. […] It is unclear from these individual studies, however, if combination treatment would result in an even greater effect on snacking behavior as reflected in a shift of the ED50 to lower doses. Therefore, an isobologram analysis was performed as described in Example 6
Dose response curves for sibutramine hydrochloride monohydrate and rimonabant hydrochloride were generated in the rat snacking model and ED50 and 95% confidence limits derived from the linear part of the curve by linear regression. Two combination studies in snacking (n=12 rats/group) were performed; the first with a fixed dose of sibutramine HCl (5 mg base/kg) co-administered with rimonabant at 1, 2.5, and 5 mg base/kg, and the second with rimonabant fixed at 4 mg base/kg with sibutramine at 2, 4, and 8 mg base/kg, plus vehicle control. ED50 values were derived from the combination studies and plotted on the isobologram. The ED50 is the dose where there is a 50% reduction in Snack Consumption. […] The rimonabant hydrochloride ED50 is 8 mg/kg.

DIO mice = experiment: DEXA analysis of body composition in DIO mice; assay type: in vivo; conditions: Day 28
Description: as §1

[3] = cited from earlier work

Row | Structure (SMILES) | further weight loss compared with sibutramine treated animals ([1]; Day 14-28) | body weight loss at day 14 [1] | body weight re-gain [2] | ED50 (Zucker fa/fa rats; Zucker fa/fa rats, oral, 1 hour before 3 hour 60% fat snack) | effect on snack intake / snacking (Zucker fa/fa rats) | lean mass (DEXA) vs. DIO controls (DIO mice) | food intake ([3]; literature studies, initially) | reduction of body weight ([3]; over a 6 month or a 1 year period) | ED50 (Zucker fa/fa rats; po)
1 | Cc1c(C(=O)NN2CCCCC2)nn(-c2ccc(Cl)cc2Cl)c1-c1ccc(Cl)cc1 [rimonabant, 1-H-pyrazole-3-carboxamide, 5-(4-chlorophenyl)-1-(2,4-dichlorophenyl)-4-methyl-N-1-piperidinyl] | approximately 4% | 15% | prevent body weight re-gain | 8 mg/kg | effective in reducing snack intake | – | – | – | –
2 | CC(C)CC(N(C)C)C1(c2ccc(Cl)cc2)CCC1 (stereo not drawn) [sibutramine, N,N-dimethyl-1-[1-(4-chlorophenyl)cyclobutyl]-3-methylbutylamine] | – | 14% | prevent body weight re-gain | – | effective in reducing snack intake | statistical decreases in lean mass | potently inhibits food intake | about 10% | 24 mg/kg
